# Structures can show the parent of a compound that is named as a salt.
# How the values were obtained:
# [1] = target: T1, human NHE-3 protein (expressed in the LAP1 cell line) (Homo sapiens, UniProt P48764); assay: Inhibition of sodium/proton exchanger subtype 3: recovery of intracellular pH after acidification (BCECF fluorescence); format: cell-based; details: pHi recovery as percentage of the maximum recovery; for remaining activity at 30 µM: read-out: remaining activity of hNHE3
# T1 construct: expressed in transfected cells; host or cells: LAP1 cell line
# T1 sequence (P48764 26-834): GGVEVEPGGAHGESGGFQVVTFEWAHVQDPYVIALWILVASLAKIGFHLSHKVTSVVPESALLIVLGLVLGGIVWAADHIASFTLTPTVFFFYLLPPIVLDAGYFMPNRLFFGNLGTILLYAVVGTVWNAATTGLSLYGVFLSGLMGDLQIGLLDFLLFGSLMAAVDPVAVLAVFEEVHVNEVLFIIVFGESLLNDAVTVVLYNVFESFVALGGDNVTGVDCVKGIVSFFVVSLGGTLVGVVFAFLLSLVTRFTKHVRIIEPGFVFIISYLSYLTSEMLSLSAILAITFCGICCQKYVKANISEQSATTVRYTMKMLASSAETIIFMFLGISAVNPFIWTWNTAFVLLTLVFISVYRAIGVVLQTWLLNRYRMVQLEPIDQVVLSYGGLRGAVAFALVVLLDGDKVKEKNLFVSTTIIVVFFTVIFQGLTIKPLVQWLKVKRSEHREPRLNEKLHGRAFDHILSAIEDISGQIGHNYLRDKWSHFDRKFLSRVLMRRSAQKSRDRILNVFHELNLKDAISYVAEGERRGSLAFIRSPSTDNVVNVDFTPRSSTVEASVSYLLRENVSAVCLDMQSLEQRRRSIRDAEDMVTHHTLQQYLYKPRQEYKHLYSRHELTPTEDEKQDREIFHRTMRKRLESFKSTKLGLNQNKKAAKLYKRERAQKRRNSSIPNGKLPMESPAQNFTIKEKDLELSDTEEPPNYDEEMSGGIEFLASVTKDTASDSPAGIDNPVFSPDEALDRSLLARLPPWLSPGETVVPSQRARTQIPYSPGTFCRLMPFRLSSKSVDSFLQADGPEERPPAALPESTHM
# Description: Biological testing of the novel compounds was accomplished by measuring inhibition of the sodium/proton exchanger subtype 3.
# The remaining activity of the human NHE-3 protein (expressed in the LAP1 cell line) was determined by measuring the recovery in the intracellular pH (pHi) after an acidification, which starts when the NHE is capable of functioning, even under bicarbonate-free conditions. For this purpose, the pHi was determined using the pH-sensitive fluorescent dye BCECF (Calbiochem, the precursor BCECF-AM is employed). The cells were initially loaded with BCECF. […] The intracellular acidification was induced by addition of 975 μl of an NH4Cl-free buffer (see below) to 25 μl aliquots of the cells incubated in NH4Cl buffer. The subsequent rate of pH recovery was recorded for 3 minutes. To calculate the inhibitory power of the substances tested, the cells were initially investigated in buffers in which complete or absolutely no pH recovery took place. […] Test solutions of the substances of interest were made up in the Na^+-containing buffer. Recovery of the intracellular pH at the tested concentration of a substance was expressed as a percentage of the maximum recovery.
melting point,SMILES,remaining activity at 30 µM [1] [%],remaining activity of hNHE3 ([1]; at 30 μM) [%]
143 °C,Cc1nc2ccccc2c(NCc2ccccc2)c1C(=O)NCCOC1CCC2(C)C(C1)CC(O)C1C2CC(O)C2(C)C1CC[C@@H]2C(C)CCC(=O)O (some centres unmarked),,
> 190 °C (dec.),CCc1nc2ccccc2c(NCc2ccc(CCC3(O)CCC4(C)C(CC(O)C5C4CC(O)C4(C)C5CC[C@@H]4C(C)CCC(=O)O)C3)cc2)c1C(=O)OC (some centres unmarked),,
180 °C,Cc1nc2ccccc2c(NCc2ccccc2)c1C(=O)NCCOC1CCC2(C)C(C1)CC(O)C1C2CC(O)C2(C)C1CC[C@@H]2C(C)CCC(=O)NCCS(=O)(=O)O (some centres unmarked) (as salt: trifluoroacetate),,
> 180 °C (dec.),COC(=O)c1c(C)nc2cccc(C)c2c1NCc1ccc(CCC2(O)CCC3(C)C(CC(O)C4C3CC(O)C3(C)C4CC[C@@H]3C(C)CCC(=O)O)C2)cc1 (some centres unmarked),,
,"CC(=O)c1c(C)nc2ccccc2c1NCc1ccc(CCC2(O)CCC3(C)C(CC(O)C4C3CC(O)C3(C)C4CC[C@@H]3C(C)CCC(=O)O)C2)c(F)c1 (stereo partly drawn) [Example 24, 2-Methyl-3-acetyl-4-{4-[1-(3α,7α,12α-trihydroxy-10β,13β-dimehtyl-17β-(3-carboxy-1-methylpropyl)hexadecahydrocyclopenta[a]phenanthren-3-yl)eth-2-yl]-3-fluorobenzylamino}quinoline]",29,
,"CC(=O)c1c(C)nc2ccccc2c1NCc1ccc(C#CC2(O)CCC3(C)C(CC(O)C4C3CC(O)C3(C)C4CC[C@@H]3C(C)CCC(=O)O)C2)c(F)c1 (stereo partly drawn) [Example 23, 2-Methyl-3-acetyl-4-{4-[1-(3α,7α,12α-trihydroxy-10β,13β-dimethyl-17β-(3-carboxy-1-methylpropyl)hexadecahydrocyclopenta[a]phenanthren-3-yl)ethyn-2-yl]-3-fluorobenzylamino}quinoline]",16,
,"COC(=O)c1c(C)nc2ccccc2c1NCc1ccc(C#CC2(O)CCC3(C)C(CC(O)C4C3CC(O)C3(C)C4CC[C@@H]3C(C)CCC(=O)O)C2)cc1 (stereo partly drawn) [Example 6, Methyl 2-methyl-4-{4-[1-(3α,7α,12α-trihydroxy-10β, 13β-dimethyl-17β-(3carboxy-1-methylpropyl)hexadecahydrocyclopenta[a]phenanthren-3-yl)ethyn-2-yl]benzylamino}quinoline-3-carboxylate]",39,
> 185 °C (dec.),COC(=O)c1c(C)nc2ccc(CCC3(O)CCC4(C)C(CC(O)C5C4CC(O)C4(C)C5CC[C@@H]4C(C)CCC(=O)O)C3)cc2c1NCc1ccccc1 (some centres unmarked),,
,"CC(=O)c1c(C)nc2ccccc2c1NCc1ccc(C#CC2(O)CCC3(C)C(CC(O)C4C3CC(O)C3(C)C4CC[C@@H]3C(C)CCC(=O)O)C2)c(Cl)c1 (stereo partly drawn) [Example 25, 2-Methyl-3-acetyl-4-{4-[1-(3α,7α,12α-trihydroxy-10β,13β-dimethyl-17β-(3-carboxy-1-methylpropyl)hexadecahydrocyclopenta[a]phenanthren-3-yl)ethyn-2-yl]-3-chlorobenzylamino}quinoline]",18,
223 °C (dec.),COC(=O)c1c(C)nc2ccc(C#CC3(O)CCC4(C)C(CC(O)C5C4CC(O)C4(C)C5CC[C@@H]4C(C)CCC(=O)O)C3)cc2c1NCc1ccccc1 (some centres unmarked),,
,"CC(=O)c1c(C)nc2ccccc2c1NCc1ccc(CCC2(O)CCC3(C)C(CC(O)C4C3CC(O)C3(C)C(C(C)CCC(=O)O)CCC43)C2)cc1 (stereo not drawn) [Example 2, 2-Methyl-3-acetyl-4-{4-[1-(3α,7α, 12α-trihydroxy-10β,13β-dimethyl-17β-(3-carboxy-1-methylpropyl)hexadecahydrocyclopenta[a]phenanthren-3-yl)eth-2-yl]benzylamino}quinoline]",,33
,"CC(=O)c1c(C)nc2ccccc2c1NCc1ccc(CCC2(O)CCC3(C)C(CC(O)C4C3CC(O)C3(C)C4CC[C@@H]3C(C)CCC(=O)O)C2)cc1Cl (stereo partly drawn) [Example 29, 2-Methyl-3-acetyl-4-{4-[1-(3α,7α,12α-trihydroxy-10β,13β-dimethyl-17β(3-carboxy-1-methylpropyl)hexadecahydrocyclopenta[a]phenanthren-3-yl)eth-2-yl]-2-chlorobenzylamino}quinoline]",61,
150 °C,Cc1nc2ccccc2c(NCc2ccc(C#CC3(O)CCC4(C)C(CC(O)C5C4CC(O)C4(C)C5CC[C@@H]4C(C)CCC(=O)O)C3)cc2)c1C(=O)OC(C)C (some centres unmarked),,
,"CC(=O)c1c(NCc2ccc(C#CC3(O)CC[C@@]4(C)C(CC(O)C5C4CC(O)[C@@]4(C)C5CC[C@@H]4[C@H](C)CCC(=O)O)C3)cc2)cc(C)nc1C (stereo partly drawn) [Example 30, 2,6-Dimethyl-3-acetyl-4-{4-[1-(3α,7α,12α-trihydroxy-10β,13β-dimethyl-17β-(3-carboxy-1-methylpropyl)hexadecahydrocyclopenta[a]phenanthren-3-yl)ethyn-2-yl]benzylamino}pyridine]",48,
,"COC(=O)CC[C@@H](C)[C@H]1CCC2C3C(C[C@H](O)[C@@]21C)[C@@]1(C)CC[C@H](OCCNC(=O)c2c(C)nc4ccccc4c2NCc2ccccc2)CC1C[C@H]3O (stereo partly drawn) [Example 3, 2-Methyl-4-aminobenzyl-N-{2-[7α, 12α-dihydroxy-10β,13β-dimethyl-17β-(3-methoxycarbonyl-1-methylpropyl)hexadecahydrocyclopenta[a]phen-anthren-3β-yloxy]ethyl}quinoline-3-carboxamide]",22,

SMILES,melting point,remaining activity at 30 µM [1] [%],remaining activity of hNHE3 ([1]; at 30 μM) [%]
"COC(=O)c1c(C)nc2cccc(C)c2c1NCc1ccc(C#CC2(O)CCC3(C)C(CC(O)C4C3CC(O)C3(C)C4CC[C@@H]3C(C)CCC(=O)O)C2)cc1 (stereo partly drawn) [Example 11, Methyl 2,5-dimethyl-4-{4-[1-(3α,7α,12α-trihydroxy-10β,13β-dimethyl-17β-(3-carboxy-1-methylpropyl)hexadecahydrocyclopenta[a]phenanthren-3-yl)ethyn-2-yl]benzylamino}quinoline-3-carboxylate]",> 155 °C,61,
"CC(=O)c1c(C)nc2ccccc2c1NCc1cccc(CCC2(O)CC[C@@]3(C)C(CC(O)C4C3CC(O)[C@@]3(C)C4CC[C@@H]3[C@H](C)CCC(=O)O)C2)c1 (stereo partly drawn) [Example 14, 2-Methyl-3-acetyl-4-{3-[1-(3α,7α,12α-trihydroxy-10β,13β-dimethyl-17β-(3-carboxy-1-methylpropyl)hexadecahydrocyclopenta[a]phenanthren-3-yl)eth-2-yl]benzylamino}quinoline]",> 170 °C (dec.),52,
"CC(=O)c1c(C)nc2ccccc2c1NCc1ccc(C(=O)NCCO[C@H]2CC[C@@]3(C)C(C2)C[C@@H](O)C2C3C[C@H](O)[C@@]3(C)C2CC[C@@H]3[C@H](C)CCC(=O)O)cc1 (stereo partly drawn) [Example 20, 4-[3β-(2-{4-[(3-Acetyl-2-methylquinolin-4-ylamino)methyl]benzoylamino)-ethoxy)-7α,12α-dihydroxy-10β,13β-dimethylhexadecahydrocyclopenta[a]phenanthren-17β-yl]pentanoic acid]",> 145 °C (dec.),56,
"CC(=O)c1c(C)nc2ccccc2c1NCc1cccc(C#CC2(O)CC[C@@]3(C)C(CC(O)C4C3CC(O)[C@@]3(C)C4CC[C@@H]3[C@H](C)CCC(=O)O)C2)c1 (stereo partly drawn) [Example 13, 2-Methyl-3-acetyl-4-{3-[1-(3α,7α,12α-trihydroxy-10β,13β-dimethyl-17β-(3-carboxy-1-methylpropyl)hexadecahydrocyclopenta[a]phenanthren-3-yl)ethyn-2-yl]benzylamino}quinoline]",> 195 °C (dec.),40,

# Source: patent US6339077B1, “Substituted 4-benzylaminoquinolines and their hetero analogs, process for their preparation, pharmaceuticals containing these compounds and use thereof” (Aventis Pharma Deutschland GmbH, priority 1999, dated 2002)
